Data as given in patent US20120177601A1, “TREATMENT OF HEPATITIS C VIRUS INFECTIONS” (THE USA AS REPRESENTED BY THE SECRETARY OF THE DEPARTMENT …, priority 2009, published 2012).
“And” between values parts separate entries of the source, which are not always exact repeats. Equal entries are not always repeated. Structures can show the parent of a compound that is named as a salt. Where two headings read alike, the source gives them in different places.

What was measured:
[1] = molecular target: T1, HCV NS3/4A recombinant protease (UniProt O92972); format: biochemical
T1 construct: other: recombinant protease, 591 nm/622 nm FRET peptide, regression analysis; other: recombinant NS3/4A, Lineweaver-Burk; other: BV versus BR; effect o; fused on or other part: By knowledge of the vendor's product, the NS4A cofactor segment of the same polyprotein is fused to the N-terminus of the NS3 protease domain
T1 sequence (O92972 1027-1657): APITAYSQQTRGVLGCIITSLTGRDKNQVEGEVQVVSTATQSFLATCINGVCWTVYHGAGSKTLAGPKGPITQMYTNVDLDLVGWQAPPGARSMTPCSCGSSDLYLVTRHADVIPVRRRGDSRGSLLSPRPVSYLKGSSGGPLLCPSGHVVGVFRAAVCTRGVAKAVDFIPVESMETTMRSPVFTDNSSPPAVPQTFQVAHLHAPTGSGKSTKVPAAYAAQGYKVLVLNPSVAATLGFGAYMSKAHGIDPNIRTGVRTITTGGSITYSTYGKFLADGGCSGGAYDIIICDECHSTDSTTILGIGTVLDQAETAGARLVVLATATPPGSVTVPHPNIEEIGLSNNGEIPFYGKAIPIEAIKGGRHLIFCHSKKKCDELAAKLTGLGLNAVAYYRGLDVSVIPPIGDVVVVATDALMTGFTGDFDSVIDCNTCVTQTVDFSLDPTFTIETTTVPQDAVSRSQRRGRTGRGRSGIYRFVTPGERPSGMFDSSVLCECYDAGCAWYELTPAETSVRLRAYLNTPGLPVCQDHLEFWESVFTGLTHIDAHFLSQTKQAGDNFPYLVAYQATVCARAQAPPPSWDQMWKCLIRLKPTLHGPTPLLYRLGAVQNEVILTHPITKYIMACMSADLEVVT
Description: In vitro assay of HCV NS3/4A recombinant protease. Protease activity was determined fluorometrically with the SensoLyte 620 HCV Protease Assay (AnaSpec, Fremont, Calif.) using a wide wavelength excitation/emission (591 nm/622 nm respectively) fluorescence energy transfer peptide according to the manufacturer's instructions. Control incubations with BV or metabolite only were performed to eliminate or correct for autofluorescence or quenching. A competitive inhibitor of the NS3/4A protease, AnaSpec #25346, was used as positive control.

[2] = tested on: HCV RNA in NS and FL replicons after BVR siRNA; format: cell-based; conditions: BV 20 μM or BR 100 μM overnight, both replicon lines, vs scrambled RNA
Description: (§1) Quantitative Real-time RT-PCR. Total RNA was extracted from cells using Trizol reagent (Invitrogen, Carlsbad, Calif.), treated with Turbo RNase free DNase (Ambion, TX), and processed as described (Zhu et al., 2008). To assess replication, the primers and probe designed by Takeuchi et al. (1999) targeting sequences located in 5′UTR (nt130-290) were employed as described for each replicon line (Blight et al., 2002; Lohmann et al., 2003). Real-time RT-PCR was performed using Taq DNA polymerase with the TaqMan Universal PCR Master Mix Protocol (Perkin Elmer Applied Biosystems, Foster City, Calif.). Quantitation was performed using the comparative cycle threshold (ΔCT) method as described previously (Abdalla et al., 2004).
Biliverdin reductase (BVR) knockdown. Biliverdin reductase (BVR) siRNA and control (scrambled) siRNA were purchased from Santa Cruz Biotechnology (sc-44650 and sc-37007). BVR knockdown was performed as described previously (Ryter et al., 2007). Efficiency of the knockdown was monitored by semiquantitative densitometry of BVR WB.

HIV-1 protease = HIV-1 protease (Human immunodeficiency virus type 1 group M subtype B, UniProt P04585); conditions: McPhee et al. 1996; cited from earlier work
[3] = unconjugated form; cited from earlier work
[4] = in vivo; cited from earlier work
[5] = tested on: Huh5-15NS replicon (sub-genomic HCV RNA); experiment: HCV replication in nonstructural (NS) replicon cells, real-time RT-PCR (ΔCT); format: cell-based; conditions: for concentration showing significant antiviral activity / required to suppress HCV replication: NS replicon, 48 hr; for Relative [HCV] [ΔCT]: overnight, Huh5-15NS, control vehicle = 1.0
Source text: (§2) Cell lines and cell culture. The human hepatoma cell line (Huh5-15) with replicating sub-genomic HCV RNA (Lohmann et al., 1999) was a kind gift of Dr. Volker Lohmann (Institute for Virology, Johannes-Gutenberg University, Mainz, Germany), and cultivated as described (Zhu et al., 2008). Huh7.5 cells harboring full length (Huh7.5FL) Conl replicons (Blight et al., 2002) were a kind gift of Dr. Charles Rice (Rockefeller University, New York, N.Y.). These cells were passed as recommended by their laboratory of origin (Blight et al., 2002). An infectious clone of HCV, J6/JFH, was inoculated into Huh7.5 cells and the cultures passed as previously described (Lindenbach et al., 2005). Cells were incubated with BV, BR, or FeCl2 for 24-48 h in DMEM containing 5% FBS.
as §1

[6] = tested on: Huh7.5FL replicon (full length Con1); experiment: HCV replication in full-length (FL) replicon cells, real-time RT-PCR (ΔCT); format: cell-based; conditions: for concentration showing significant antiviral activity / required to suppress HCV replication: FL replicon, 48 hr; for Relative [HCV] [ΔCT]: overnight, Huh7.5FL, control vehicle = 1.0
Source text: as §2, §1

[7] = tested on: J6/JFH infectious HCV in Huh7.5 cells; experiment: J6/JFH HCV infection of Huh7.5 cells (immunostaining, HCV RNA); format: cell-based; conditions: BV 20-200 μM, 72 hr; HCV polyvalent sera immunoreactivity and HCV RNA
Source text: as §2, with “Cells were incubated with BV, BR, or FeCl2 for 24-48 h in DMEM containing 5% FBS.” left out
Quantitative Real-time RT-PCR. Total RNA was extracted from cells using Trizol reagent (Invitrogen, Carlsbad, Calif.), treated with Turbo RNase free DNase (Ambion, TX), and processed as described (Zhu et al., 2008). […] Quantitation was performed using the comparative cycle threshold (ΔCT) method as described previously (Abdalla et al., 2004).
Immunocytochemical staining. […] Antibody binding was evaluated following labeling with anti-human secondary antibody-alkaline phosphatase conjugate and results recorded by photomicroscopy.

[8] = molecular target: T2, endogenous NS3/4A protease from replicons (Hepatitis C virus genotype 1b, UniProt Q9WMX2); experiment: Endogenous NS3/4A protease assay with replicon lysates (FRET); format: biochemical, HCV; conditions: protease freshly prepared from replicons
T2 construct: For assays employing endogenous NS3/4A protease; expressed in transfected cells; host or cells: HCV replicon cells (Huh5-15 sub-genomic or Huh7.5FL Con1), Triton X-100 lysate
T2 sequence (Q9WMX2 1658-1711): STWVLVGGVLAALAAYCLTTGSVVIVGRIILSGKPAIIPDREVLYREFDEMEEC
T2 sequence (Q9WMX2 1027-1657): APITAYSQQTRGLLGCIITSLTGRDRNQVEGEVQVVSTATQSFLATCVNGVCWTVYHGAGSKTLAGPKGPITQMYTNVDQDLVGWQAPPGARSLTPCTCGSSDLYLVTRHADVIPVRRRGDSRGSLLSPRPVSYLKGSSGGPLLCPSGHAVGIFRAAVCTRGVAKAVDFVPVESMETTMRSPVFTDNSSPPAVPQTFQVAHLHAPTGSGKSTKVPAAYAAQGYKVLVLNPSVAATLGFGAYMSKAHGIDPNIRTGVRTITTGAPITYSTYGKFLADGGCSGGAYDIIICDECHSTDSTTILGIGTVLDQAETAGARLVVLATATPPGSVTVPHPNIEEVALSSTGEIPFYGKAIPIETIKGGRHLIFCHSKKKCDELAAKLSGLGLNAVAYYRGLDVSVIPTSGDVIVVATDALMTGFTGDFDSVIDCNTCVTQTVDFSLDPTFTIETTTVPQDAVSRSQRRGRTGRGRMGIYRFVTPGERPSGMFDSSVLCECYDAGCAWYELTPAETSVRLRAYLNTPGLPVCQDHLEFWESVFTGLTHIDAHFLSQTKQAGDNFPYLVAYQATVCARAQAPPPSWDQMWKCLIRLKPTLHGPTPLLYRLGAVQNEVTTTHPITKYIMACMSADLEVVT
Description: For assays employing endogenous NS3/4A protease, the high-throughput FRET assay was used with modifications (Yu et al., 20009). Replicon cells at 90% confluence were lysed in ice-cold 1.25% Triton X-100 lysis buffer (Yu et al., 20009). Serial dilutions of lysates were added in triplicate to black 96-well plates, together with designated concentrations of tetrapyrrole. The HiLyte Flur™ TR/QXL™ 610 substrate solution (AnaSpec) was prepared according to the manufacturer's instructions. The plate and substrate were incubated at 37° C. for 15 min, and then 50 μl substrate solution was added to each well. The plates were incubated at room temperature for 30 min, avoiding direct light. The fluorescence intensity was then measured as above for recombinant enzyme assays using FLUOstar Optima (BMG Lab Tech, Cary, N.C.). To ensure specificity for the NS3/4A protease, lysates of parental Huh7 and Huh7.5 cells were run in every assay and the results subtracted as background fluorescence.

[9] = tested on: replicon or parental cell lines (Huh7.5); experiment: Cytotoxicity, MTT assay; format: cell-based, human; conditions: 20-200 μM BV
Description: Cytotoxicity assay. Cytotoxicity was assessed using the MTT assay as detailed previously (Wen et al., 2008). Cells (1×10^4 per well) were seeded in 96-well culture plates and allowed to attach overnight. […]

[10] = tested on: NS5A and core protein in NS and FL replicons; experiment: Western blot / immunoprecipitation of HCV proteins in replicons; format: cell-based; conditions: for NS5A protein level (WB): both replicon lines; for NS5A protein level (WB) / core protein level (WB): 24 hr, BV 20 μM, BR 200 μM, FeCl2 100 mM as printed
Description: Western blot analysis. Western blots (WB) were performed as previously described using enhanced chemiluminescence for signal detection (ECLTM, Amersham) (Abdalla et al., 2005). Signal intensities were quantified using Image J software (NIH).
Immunoprecipitation of NS5A. Log-phase replicons were treated with various concentrations of BV for 48 hr, washed, lysed in cell lysis buffer (Cell Signaling Technology, Beverly, Mass.) and clarified by cold centrifugation (14,000×g for 10 min). An aliquot of supernatant containing 100 μg protein was incubated with 1 μg of HCV NS5A monoclonal antibody (Meridian Life Science, Saco, Me.) and 20 μl of rProtein G Agarose (Invitrogen, CA) overnight at 4° C. The agarose was collected by 3000×g spin, washed three times with ice-cold PBS, then dissolved in 40 μL 2× Laemmli sample buffer (Bio-Rad, CA) and assayed by WB.

[11] = tested on: HCV replication in FL and NS replicons; experiment: BV with α-interferon, HCV replication in replicons; format: cell-based; conditions: 50 or 100 μM BV overnight with α-interferon
Description: FL (FIG. 7A) or NS (FIG. 7B) replicons were treated with indicated amounts of α-interferon alone or in the presence of 50 or 100 μM BV overnight. HCV replication was determined by real-time RT-PCR using the comparative cycle threshold (ΔCT) method. (*) p<0.01 vs. control; (#) p<0.005 vs. control.
as §1

vascular injury = conditions: rats, 50 mg/kg; cited from earlier work
LPS induced septic shock = conditions: rats, 35 mg/kg; cited from earlier work
[12] = recombinant protease, 591 nm/622 nm FRET peptide, regression analysis; read-out: IC50, inhibition of HCV NS3/4A protease

C=CC1=C(C)/C(=C/c2[nH]c(Cc3[nH]c(/C=C4\NC(=O)C(C)=C4C=C)c(C)c3CCC(=O)O)c(CCC(=O)O)c2C)NC1=O [BR, Bilirubin]
IC50 ([1]; read-out: IC50, inhibition of HCV NS3/4A protease; recombinant protease, 591 nm/622 nm FRET peptide, regression analysis): > 300 µM | effect of BVR knockdown on antiviral activity (HCV RNA) [2]: no significant effect | Ki (HIV-1 protease): 0.8 µM | solubility in water [3]: not soluble in water | oral bioavailability [4]: relatively poor oral bioavailability

C=CC1=C(C)/C(=C/c2[nH]c(Cc3[nH]c(/C=C4\NC(=O)C(C)=C4C=C)c(C)c3CCC(=O)O)c(CCC(=O)O)c2C)NC1=O [Bilirubin IXα, bilirubin-IX-α]
concentration showing significant antiviral activity / required to suppress HCV replication [5]: 200 µM | concentration showing significant antiviral activity / required to suppress HCV replication [6]: 200 µM | IC50 [1, 12]: > 300 µM

C=CC1=C(C)/C(=C/C2=NC(=C\c3[nH]c(/C=C4/NC(=O)C(C)=C4C=C)c(C)c3CCC(=O)OC)/C(CCC(=O)OC)=C2C)NC1=O [Biliverdin dimethylester, biliverdin dimethyl ester]
IC50 [1, 12]: > 300 µM

C=CC1=C(C)/C(=C/C2=NC(=C\c3[nH]c(/C=C4\NC(=O)C(C)=C4C=C)c(C)c3CCC(=O)O)/C(CCC(=O)O)=C2C)NC1=O [Biliverdin, biliverdin-IX-α hydrochloride]
concentration showing significant antiviral activity / required to suppress HCV replication [5]: 20 µM | concentration showing significant antiviral activity / required to suppress HCV replication [6]: 20 µM | Huh7.5 cell infection with J6/JFH [7]: markedly decreased | difference in IC50 of BV and BR for the NS3/4a protease ([1]; BV versus BR): at least 10 fold | mode of inhibition of NS3/4A protease ([1]; Lineweaver-Burk and secondary plots): both noncompetitive and competitive inhibitor activity | effect of BV together with #25346 on protease activity ([1]; both BV and #25346 present): additive effect | IC50 ([1]; read-out: IC50, inhibition of HCV NS3/4A protease; recombinant protease, 591 nm/622 nm FRET peptide, regression analysis; listed as BV, hydrochloride): 9.3 µM and 9 µM | Ki ([1]; read-out: Ki (competitive), secondary plot Km/V vs [BV]; recombinant NS3/4A, Lineweaver-Burk): 0.6 µM | Ki ([1]; read-out: Ki′ (noncompetitive), secondary plot 1/Vap vs [BV]; recombinant NS3/4A, Lineweaver-Burk): 1.1 µM | inhibition of endogenous protease compared with recombinant enzyme [8]: slightly higher concentrations | toxicity (MTT) with FBS ([9]; inclusion of 3-5% FBS, data not shown): toxicity was eliminated | toxicity (MTT) ([9]; serum-free culture medium, 24-48 hr): 15% | NS5A protein level (WB) [10]: decreased NS5A | core protein level (WB) ([10]; full-length replicons): reduced | NS5A by WB or immunoprecipitation, concentration series ([10]; full-length replicons, various concentrations of BV): dose-dependently decreased NS5A | effect of BVR knockdown on antiviral activity (HCV RNA) [2]: significantly enhanced | effect of BV on α-interferon antiviral activity [11]: clear additive effect | Ki (HIV-1 protease): 1 µM | vascular injury (vascular injury): prevented vascular injury | LPS induced septic shock (LPS induced septic shock): protected rats against LPS induced septic shock | oral bioavailability [4]: relatively poor oral bioavailability

[Cl][Fe][Cl] [FeCl2, reference compound]
HCV RNA ([6]; FeCl2 100 mM as printed, replicon line not specified, not shown): diminishing HCV RNA | NS5A protein level (WB) [10]: decreased | core protein level (WB) ([10]; full-length replicons): decreased

CCC1=C(C)/C(=C/c2[nH]c(Cc3[nH]c(/C=C4\NC(=O)C(C)=C4CC)c(C)c3CCC(=O)O)c(CCC(=O)O)c2C)NC1=O [Mesobilirubin, mesobilirubin]
IC50 [1, 12]: > 300 µM

Bilirubin mixed isomers [Bilirubin (mixed isomers)]
concentration showing significant antiviral activity / required to suppress HCV replication [5]: 200 µM | concentration showing significant antiviral activity / required to suppress HCV replication [6]: 200 µM | IC50 [1, 12]: > 300 µM

hemin [Heme]
Relative [HCV] [ΔCT] ([5]; Heme 5 uM, mean of four): 0.27 | Relative [HCV] [ΔCT] ([5]; Heme 10 uM): 0.09 | Relative [HCV] [ΔCT] ([5]; Heme 20 uM): 0.03 | lowest level with apparent antiviral effect ([5]; hemin, replicons): 5 | Relative [HCV] [ΔCT] ([6]; Heme 5 uM): 0.22 | Relative [HCV] [ΔCT] ([6]; Heme 10 uM): 0.08 | Relative [HCV] [ΔCT] ([6]; Heme 20 uM): 0.04 | lowest level with apparent antiviral effect ([6]; hemin, replicons): 5
